Patent US20260001849A1, “NOVEL B0AT1 INHIBITOR” (MITSUBISHI TANABE PHARMA CORPORATION, priority 2023, published 2026)
Read-outs that look alike come from different tables or passages of the source.

What was measured:
[1] = target: T1, hERG channel (Homo sapiens, UniProt Q12809); assay: hERG channel inhibitory activity, whole-cell patch clamp (auto-patch clamp system); type: cell-based
T1 construct: host or cells: CHO cells
Experimental: Evaluation of hERG (Human Ether-a-go-go Related Gene) Channel Inhibitory Activity
The hERG channel inhibitory activity of the compound of the present invention was measured using CHO cells (B′ SYS GmbH) forcibly expressing hERG channels involved in human rapidly active delayed rectifier potassium current (IKr) by the whole-cell patch clamp method using an auto-patch clamp system (SyncroPatch384PE).
Cell suspension, extracellular fluid, intracellular fluid, and measurement plate (NPC-384 plate) were placed in the auto-patch clamp system, and hERG current measurements were performed using the whole-cell patch clamp method. The voltage protocol was set to a holding potential of −80 mV, with a depolarizing pulse preceded by −90 mV (100 ms) and followed by −80 mV (100 ms).
The depolarizing pulse was […] (500 ms), and then the hERG peak current value obtained during the ramp phase was measured when the voltage was lowered to −80 mV over 100 ms. The protocol was applied at 5-second intervals for 5 minutes for each concentration.
SyncroPatch software (manufactured by Nanion) was used for data analysis. Four concentrations were applied incrementally for each test substance, and the average hERG Peak current value obtained from the last three stimuli of each applied concentration was used as the evaluation data. The IC50 value was calculated from the inhibition rate of the current at each concentration of each test substance relative to the pre-application value using Hill's equation (Hill equation) using the relevant software.
The same experiments were also performed using the example compounds described in WO 2023/145804 as comparative example compounds 1-4.

[2] = target: T2, Human BOAT1 (Homo sapiens, UniProt Q695T7); assay: hBOAT1 inhibitory test (phenylalanine uptake); type: cell-based; settings: Human BOAT1 stable expression CHO cells, phenylalanine 0.25 mM, read-out: hB0AT1 IC50
T2 construct: expressed in transfected cells
T2 sequence (Q695T7 1-634): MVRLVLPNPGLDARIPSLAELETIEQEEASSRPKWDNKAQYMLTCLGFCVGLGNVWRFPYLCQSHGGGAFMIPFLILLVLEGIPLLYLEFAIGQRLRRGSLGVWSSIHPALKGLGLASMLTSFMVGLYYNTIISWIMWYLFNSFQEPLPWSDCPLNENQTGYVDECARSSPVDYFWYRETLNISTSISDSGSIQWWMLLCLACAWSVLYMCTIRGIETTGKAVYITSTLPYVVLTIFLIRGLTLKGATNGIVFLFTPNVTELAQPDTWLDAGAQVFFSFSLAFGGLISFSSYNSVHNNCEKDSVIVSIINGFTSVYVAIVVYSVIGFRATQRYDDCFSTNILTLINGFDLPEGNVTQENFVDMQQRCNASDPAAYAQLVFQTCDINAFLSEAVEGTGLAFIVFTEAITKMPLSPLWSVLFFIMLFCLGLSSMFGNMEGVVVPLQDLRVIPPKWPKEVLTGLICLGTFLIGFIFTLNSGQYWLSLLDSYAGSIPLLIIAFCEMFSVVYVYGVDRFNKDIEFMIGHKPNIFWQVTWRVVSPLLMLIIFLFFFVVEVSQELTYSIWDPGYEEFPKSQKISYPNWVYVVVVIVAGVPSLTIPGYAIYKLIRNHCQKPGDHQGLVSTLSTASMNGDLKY
Experimental: A test compound dissolved in dimethyl sulfoxide (DMSO) was added to a 96 well plate for solid phase radioactivity measurement containing a scintillator at the bottom of the well (final concentration of DMSO 0.5%). DMSO alone as a control and DMSO containing N-(4-bromophenyl)-3,5-dichloro-2-hydroxybenzamide (final concentration […]) for the measurement of BOAT1 non-specific uptake were similarly added at 0.5 μL per well. Human BOAT1 stable expression CHO cells suspended in a buffer (buffer containing 96 mM sodium chloride, 2 mM potassium chloride, 1.8 mM calcium chloride, 1 mM magnesium chloride, 0.01% bovine serum albumin, and 10 mM 2-[4-(2-hydroxyethyl)-1-piperazinyl]ethanesulfonic acid) were added by 90 μL to 75000 cells/well. After standing at ordinary temperature for 30 min or longer, the cells were subjected to a phenylalanine uptake experiment. A buffer containing L-phenylalanine and [3,4,5-3H]-L-phenylalanine was added by 10 μL per well (final concentration of phenylalanine 0.25 mM), and the radioactivity of the plate bottom surface at ordinary temperature was measured with a scintillation counter over time, and the radioactivity value after 100 to 200 min was analyzed.

[3] = [3H]-L-phenylalanine uptake, radioactivity after 100 to 200 min
[4] = comparative example compounds of WO 2023/145804, read-out: hERG inhibition IC50

T1 sequence (Q12809 whole entry): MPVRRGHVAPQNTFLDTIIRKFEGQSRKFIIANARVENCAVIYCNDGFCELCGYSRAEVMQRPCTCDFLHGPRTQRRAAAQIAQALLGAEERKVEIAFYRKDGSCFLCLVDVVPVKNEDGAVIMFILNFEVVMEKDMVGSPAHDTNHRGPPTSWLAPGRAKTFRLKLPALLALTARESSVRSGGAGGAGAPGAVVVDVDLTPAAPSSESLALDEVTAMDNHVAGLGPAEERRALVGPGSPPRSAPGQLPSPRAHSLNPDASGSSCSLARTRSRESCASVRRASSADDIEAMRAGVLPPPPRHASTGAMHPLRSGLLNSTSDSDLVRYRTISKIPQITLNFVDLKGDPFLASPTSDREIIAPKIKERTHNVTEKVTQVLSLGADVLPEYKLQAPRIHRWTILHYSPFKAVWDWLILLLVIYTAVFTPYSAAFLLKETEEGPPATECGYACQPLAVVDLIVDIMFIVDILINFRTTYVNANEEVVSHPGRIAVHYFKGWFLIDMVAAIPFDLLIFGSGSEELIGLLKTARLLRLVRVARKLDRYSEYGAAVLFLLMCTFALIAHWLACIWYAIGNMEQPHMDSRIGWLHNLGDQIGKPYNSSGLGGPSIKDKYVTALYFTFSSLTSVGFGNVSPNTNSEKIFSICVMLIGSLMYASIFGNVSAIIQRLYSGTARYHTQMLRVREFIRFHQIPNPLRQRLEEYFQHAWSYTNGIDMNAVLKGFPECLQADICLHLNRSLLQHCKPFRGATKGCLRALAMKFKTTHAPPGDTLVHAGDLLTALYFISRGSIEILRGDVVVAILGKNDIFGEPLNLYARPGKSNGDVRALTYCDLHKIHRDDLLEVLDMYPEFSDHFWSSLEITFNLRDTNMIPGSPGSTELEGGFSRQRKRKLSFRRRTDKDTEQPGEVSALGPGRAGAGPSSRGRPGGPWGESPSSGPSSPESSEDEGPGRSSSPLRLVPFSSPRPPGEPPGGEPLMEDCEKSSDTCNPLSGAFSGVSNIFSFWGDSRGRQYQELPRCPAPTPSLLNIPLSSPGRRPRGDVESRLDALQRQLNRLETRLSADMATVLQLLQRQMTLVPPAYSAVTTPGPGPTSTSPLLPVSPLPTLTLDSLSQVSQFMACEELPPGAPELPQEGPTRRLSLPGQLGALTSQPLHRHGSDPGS

Compound | IC50 ([1]; read-out: hERG IC50) [µM] | further results
CC(C(=O)O)c1ccc2c(c1)CCN(C(=O)CNC(=O)/C=C/c1ccc(C(F)(F)F)cc1)C2 (racemic) [I-171] | > 30 | IC50 [2, 3]: 0.091 µM
O=C(/C=C/c1ccc(C(F)(F)F)cc1)NCC(=O)N1CCc2cc([C@@H]3C[C@H]3C(=O)O)ccc2C1 (racemic) [I-172, (1R*,2R*)-2-[2-[2-[[(E)-3-[4-(trifluoromethyl)phenyl]prop-2-enoylamino]acetyl]-3,4-dihydro-1H-isoquinolin-6-yl]cyclopropanoic acid] | > 30 | IC50 [2, 3]: 0.155 µM
O=C(O)CCCN1CCN(C(=O)CNC(=O)/C=C/c2ccc(C(F)(F)F)cc2F)C(c2cccc(Br)c2)C1 (racemic) [I-234, 4-[3-(3-bromophenyl)-4-[2-[[(E)-3-[2-fluoro-4-(trifluoromethyl)phenyl]prop-2-enoyl]amino]acetyl]piperazin-1-yl]butanoic acid] | > 30 | IC50 [2, 3]: 0.05 µM
O=C(O)CCCN1CCN(C(=O)CNC(=O)/C=C/c2ccc(C(F)(F)F)cc2F)C(c2ccc(Cl)cc2)C1 (racemic) [I-236, 4-[3-(4-chlorophenyl)-4-[2-[[(E)-3-[2-fluoro-4-(trifluoromethyl)phenyl]prop-2-enoyl]amino]acetyl]piperazin-1-yl]butanoic acid] | > 30 | IC50 [2, 3]: 0.094 µM
CC(C(=O)O)c1ccc2c(c1)CCN(C(=O)CNC(=O)/C=C/c1ccc(C(F)(F)F)cc1)C2 (single isomer, unassigned) [I-286, 2-[2-[2-[[(E)-3-[4-(trifluoromethyl)phenyl]prop-2-enoyl]amino]acetyl]-3,4-dihydro-1H-isoquinolin-6-yl]propanoic acid] | > 30 | IC50 ([2]; phenylalanine uptake): 0.303 µM
CC(C(=O)O)c1ccc2c(c1)CCN(C(=O)CNC(=O)/C=C/c1ccc(C(F)(F)F)cc1)C2 (single isomer, unassigned) [I-287, 2-[2-[2-[[(E)-3-[4-(trifluoromethyl)phenyl]prop-2-enoyl]amino]acetyl]-3,4-dihydro-1H-isoquinolin-6-yl]propanoic acid] | > 30 | IC50 ([2]; phenylalanine uptake): 0.178 µM
CN1CCN(C(=O)CNC(=O)/C=C/c2ccc(C(F)(F)F)cc2)C(c2ccccc2)C1 (centres unmarked) [Comparative Example compound 1, reference compound] | – | IC50 [1, 4]: 2.09 µM
O=C(/C=C/c1ccc(C(F)(F)F)cc1)NCC(=O)N1CCNCC1 [Comparative Example compound 2, reference compound] | – | IC50 [1, 4]: 8.72 µM
CN1CCN(C(=O)CNC(=O)/C=C/c2ccc(C(F)(F)F)cc2)CC1 [Comparative Example compound 3, reference compound] | – | IC50 [1, 4]: 3.63 µM
O=C(/C=C/c1ccc(C(F)(F)F)cc1)NCC(=O)N1CCc2ncsc2C1 [Comparative Example compound 4, reference compound] | – | IC50 [1, 4]: 5.96 µM
O=C(/C=C/c1ccc(C(F)(F)F)cc1)NCC(=O)N1CCc2cc(C3(C(=O)O)CC3)ccc2C1 [I-166] | > 30 | –
COc1cc2c(cc1CC(=O)O)CCN(C(=O)CNC(=O)/C=C/c1ccc(C(F)(F)F)cc1)C2 [I-176] | > 30 | –
O=C(O)Cc1cc2c(s1)CCN(C(=O)CNC(=O)/C=C/c1ccc(C(F)(F)F)cc1)C2 [I-178] | > 30 | –
O=C(O)CCCN1CCN(C(=O)CNC(=O)/C=C/c2ccc(C(F)(F)F)cc2F)CC1C(F)(F)F (centres unmarked) [I-198] | > 30 | –
C[C@@H]1CN(CCCC(=O)O)[C@@H](C)CN1C(=O)CNC(=O)/C=C/c1ccc(C(F)(F)F)cc1F [I-235] | > 30 | –
C[C@H]1CN(C(=O)CNC(=O)/C=C/c2ccc(C(F)(F)F)cc2F)[C@@H](c2ccccc2)CN1CCCC(=O)O [I-252] | > 30 | –
O=C(/C=C/c1ccc(C(F)(F)F)cc1F)NCC(=O)N1CCCC(c2ccccc2C(=O)O)C1 (centres unmarked) [I-253] | 26.2 | –
O=C(O)CCCN1CCN(C(=O)CNC(=O)/C=C/c2ccc(C(F)(F)F)cc2F)C(c2ccc(Cl)c(F)c2)C1 (centres unmarked) [I-267] | > 30 | –
O=C(O)CCCN1CCN(C(=O)CNC(=O)/C=C/c2ccc(C(F)(F)F)cc2F)CC1C1CCCCC1 (centres unmarked) [I-271] | 16.4 | –
O=C(O)CCCN1CCN(C(=O)CNC(=O)/C=C/c2ccc(C(F)(F)F)cc2F)C(c2cccnc2)C1 (centres unmarked) [I-403] | – | IC50 ([2]; phenylalanine uptake): 1.72 µM
